# Source: US20230021483A1, “[…] […] METHOD AND CLASSIFICATION OF PHARMACEUTICAL COMPONENTS BY USING TRANSCRIPTOMES” (National Institutes of Biomedical Innovation, Health and …, priority 2016, published 2023)
# Peptide text beside a SMILES is read from it. * marks the point of attachment. X1 = CCCCCCCCCCCCCCCC(=O)OCC(C*)OC(=O)CCCCCCCCCCCCCCC; Palmitoyl = CCCCCCCCCCCCCCCC(=O)*
# Assays:
# Format in all cases: in vivo, C57BL/6 mice
# [1] = test system: circulating blood cells; assay: Hematological cell count of peripheral blood 6 h after adjuvant administration (VetScan HMII); conditions: mouse, in vivo
# Description: Take about 200 μL of blood from the retro-orbital venous plexus with a non-heparinized capillary tube and place the blood into a 1.5 mL tube comprising 2 μL of 10% EDTA-2K for hematological testing. Thoroughly mix the sample by gentle tapping. Stored at room temperature until hematological testing.
# The hematological cell count was found using VetScan HMII (Abaxis). 50 μl of EDTA-2K blood sample was diluted by adding 250 μl of saline. Measurements are taken with VetScan HMII by following the instruction.
# In a preliminary experiment, FCA and ALM were tested at different points up to 72 hours. […] At 6 hours after adjuvant administration, LV, SP, and LN (both sides) were removed to study the gene expression thereof by using Affimetrix Genechip microarray system (Affymetrix). The sampled organs were each placed in a tube containing RNAlater. The tube was maintained at 4° C. overnight, and stored at −80° C. until use. Blood was also collected after 6 hours from adjuvant administration for general hematological testing. About 200 μL of blood was taken from the retro-orbital venous plexus with a non-heparinized capillary tube and placed into a 1.5 mL tube comprising 2 μL of 10% EDTA-2K for hematological testing. The hematological cell count was found using VetScan HMII (Abaxis). 50 μl of EDTA-2K blood sample was diluted by adding 250 μl of saline. Measurements were taken with VetScan HMII by following the instruction.
# The effect of adjuvant administration with respect to the changes in several hematological parameters was investigated. The following parameters were studied: white blood cells (WBC), lymphocytes (LYM), monocytes (MON), granulocytes (GRA), relative (%) content of lymphocytes (LY %), relative (%) content of monocytes (MO %), relative (%) content of granulocytes (GR %), red blood cells (RBC), hemoglobins (Hb, HGB), hematocrits (HCT), mean corpuscular volume (MCV), mean corpuscular hemoglobins (MCH), mean corpuscular hemoglobin concentration (MCHC), red blood cell distribution width (RDW), platelets (PLT), platelet concentration (PCT), mean platelet volume (MPV), and platelet distribution width (PDW).
# [2] = test system: liver (LV); assay: Whole organ transcriptome (GeneChip microarray) of liver 6 h after adjuvant administration: sDEGs, hierarchical clustering; for adjuvant group (cluster) in LV: key: G1 (interferon signaling); G2 (metabolism of lipids and lipoproteins); G3 (response to stress); G4 (response to wounding); G5 (phosphate-containing compound metabolic process); G6 (phagosome); conditions: liver; for Number of gene probes with statistically significant changes (sDEGs), LV, Down / Number of gene probes with statistically significant changes (sDEGs), LV, Up: i.d. administration, 6 h after adjuvant; for Number of gene probes with statistically significant changes (sDEGs), LV, Down: fold change <0.667, p<0.01, customized PA call=1; for Number of gene probes with statistically significant changes (sDEGs), LV, Up: fold change >1.5, p<0.01, customized PA call=1
# [3] = test system: inguinal lymph nodes (LN); assay: Whole organ transcriptome (GeneChip microarray) of draining inguinal lymph nodes 6 h after adjuvant administration: sDEGs, gene modules, hierarchical clustering; for adjuvant group (cluster) in LN: key: G1 (interferon signaling); G2 (metabolism of lipids and lipoproteins); G3 (response to stress); G4 (response to wounding); G5 (phosphate-containing compound metabolic process); G6 (phagosome); conditions: for Number of gene probes with statistically significant changes (sDEGs), LN, Down / Number of gene probes with statistically significant changes (sDEGs), LN, Up: i.d. administration, 6 h after adjuvant; for Number of gene probes with statistically significant changes (sDEGs), LN, Down: fold change <0.667, p<0.01, customized PA call=1; for Number of gene probes with statistically significant changes (sDEGs), LN, Up: fold change >1.5, p<0.01, customized PA call=1
# [4] = test system: spleen (SP); assay: Whole organ transcriptome (GeneChip microarray) of spleen 6 h after adjuvant administration: sDEGs, hierarchical clustering; for adjuvant group (cluster) in SP: key: G1 (interferon signaling); G2 (metabolism of lipids and lipoproteins); G3 (response to stress); G4 (response to wounding); G5 (phosphate-containing compound metabolic process); G6 (phagosome); conditions: for Number of gene probes with statistically significant changes (sDEGs), SP, Down / Number of gene probes with statistically significant changes (sDEGs), SP, Up: i.d. administration; for Number of gene probes with statistically significant changes (sDEGs), SP, Down: fold change <0.667, p<0.01, customized PA call=1, 6 h after adjuvant; for Number of gene probes with statistically significant changes (sDEGs), SP, Up: fold change >1.5, p<0.01, customized PA call=1, 6 h after adjuvant
# [5] = test system: preferentially upregulated genes in LV, SP, LN; assay: Z-score-based differential gene expression analysis (adjuvant group- or adjuvant-associated genes, 40 module mapping, TargetMine annotation); conditions: z-score selected genes; TargetMine and IPA upstream cytokine analyses
# Excerpt: Each sample's FC value was converted into a z-score on a gene basis by using the entire data set for each organ. The Z-score of the triplicates of interest were summed for each adjuvant. For example, the three sample z-score in the LV sample following cdiGMP administration was summed on a gene-by-gene basis, after which the summed scores of >3 genes were selected as relatively preferentially expressed genes in the LV after cdiGMP administration. The following threshold was applied for selections. […] G2^LV: ALM_IP(z>1) & bCD(z>1) & ENDCN(z>1) & FCA(z>1). […] G4^LV: MALP2s(z>3). […] G2^SP: ENDCN_x2+ENDCN_x3(z>2) & ALM_IP(z>3) & bCD(z>3). […] G4^SP: ADX_ID_x2+ADX_ID_x3(z>2) & ADX_IP(z>3) & MALP2s(z>3). […] G2^LN: bCD(z>3) & FCA(z>3). […] G5^LN: K3(z>1.5) & K3SPG_x1+K3SPG_x2(z>1) & D35_x1+D35_x3(z>1). G6^LN: AddaVax(z>3).
# [6] = test system: LV, SP and LNs; assay: Whole organ transcriptome across organs (adjuvant gene space): gene responses and adjuvant grouping; conditions: hierarchical clustering; LV, SP and/or LNs
Compound,monocytosis (monocytes in blood) [1],"Number of gene probes with statistically significant changes (sDEGs), LV, Down [2]","Number of gene probes with statistically significant changes (sDEGs), LV, Up [2]","Number of gene probes with statistically significant changes (sDEGs), LN, Down ([3]; lymph node)","Number of gene probes with statistically significant changes (sDEGs), LN, Up ([3]; lymph node)","Number of gene probes with statistically significant changes (sDEGs), SP, Down [4]","Number of gene probes with statistically significant changes (sDEGs), SP, Up [4]",adjuvant group (cluster) in LV ([2]; hierarchical clustering),adjuvant group-associated biological features [5],"module M40^LN (immune system process; dendritic cells, macrophages, neutrophils, stromal cells) ([3]; LN, 6 h)","adjuvant group (cluster) in LN ([3]; hierarchical clustering, lymph node)",adjuvant group (cluster) within the adjuvant gene space [6],leukopenia [1],lymphopenia [1],adjuvant group (cluster) in SP ([4]; hierarchical clustering)
"CCCCCCCCCCCCCCCC(=O)N[C@@H](CSCC(COC(=O)CCCCCCCCCCCCCCC)OC(=O)CCCCCCCCCCCCCCC)C(=O)N[C@@H](CO)C(=O)N[C@@H](CCCCN)C(=O)N[C@@H](CCCCN)C(=O)N[C@@H](CCCCN)C(=O)N[C@@H](CCCCN)C(=O)O (stereo partly drawn) [Pam3CSK4, Pam-3-Cys-Ser-Lys-Lys-Lys-Lys] (Palmitoyl-C(X1)SKKKK-OH)",clearly induced,–,–,–,–,–,–,–,–,–,–,–,–,–,–
Nc1nc2c(ncn2[C@@H]2O[C@@H]3COP(=O)(O)O[C@H]4[C@@H](O)[C@H](n5cnc6c(=O)[nH]c(N)nc65)O[C@@H]4COP(=O)(O)O[C@H]3[C@H]2O)c(=O)[nH]1 [cdlGMP],–,218,280,908,1579,261,707,–,–,–,–,–,–,–,–
Polyinosine-polycytidylic acid [PolyIC],–,1122,516,1460,2203,738,1360,G1,strongly associated with type I and type II interferon responses,strongly induced,G1,group (G) 1,caused leukopenia,strongly induced,G1
